Results published in ChEMBL document CHEMBL1687809, “Novel apramycin resistance gene apmA in bovine and porcine methicillin-resistant Staphylococcus aureus ST398 isolates” (2011).
In brackets after ≈: the same amount, converted by molar mass.

What was measured:
Format in all cases: functional
Staphylococcus aureus [1] = assay: Antimicrobial activity against methicillin-resistant Staphylococcus aureus ST398 isolate 11 containing apmA, erm(B), tet(L), tet(M), tet(K), dfrK, aadD, mecA, blaZ resistance genes by CLSI M31-A3 method
Staphylococcus aureus [2] = assay: Antimicrobial activity against Staphylococcus aureus RN4220 by CLSI M31-A3 method
Staphylococcus aureus [3] = assay: Antimicrobial activity against Staphylococcus aureus RN4220 carrying pAFS11-apmA, erm(B), tet(L), dfrK, aadD resistance genes by CLSI M31-A3 method

Row | Molecule | MIC (Staphylococcus aureus [1]) | MIC (Staphylococcus aureus [2]) | MIC (Staphylococcus aureus [3])
1 | CN[C@@H]1[C@@H](O[C@H]2O[C@H](CO)[C@@H](N)[C@H](O)[C@H]2O)OC2C[C@@H](N)[C@@H](O[C@H]3[C@H](O)[C@@H](O)[C@H](N)C[C@@H]3N)OC2[C@@H]1O (some centres not stated) [APRAMYCIN] | ≥ 128 µg/mL | 1 µg/mL (≈ 1.85 µM) | ≥ 128 µg/mL
2 | CCC[C@@H]1C[C@@H](C(=O)N[C@@H]([C@H]2O[C@H](SC)[C@H](O)[C@@H](O)[C@H]2O)[C@H](C)Cl)N(C)C1 [CLINDAMYCIN] | ≥ 128 µg/mL | ≤ 0.12 µg/mL | ≥ 128 µg/mL
3 | CC[C@H]1OC(=O)[C@H](C)[C@@H](O[C@H]2C[C@@](C)(OC)[C@@H](O)[C@H](C)O2)[C@H](C)[C@@H](O[C@@H]2O[C@H](C)C[C@H](N(C)C)[C@H]2O)[C@](C)(O)C[C@@H](C)C(=O)[C@H](C)[C@@H](O)[C@]1(C)O [ERYTHROMYCIN] | ≥ 64 µg/mL | 0.12 µg/mL (≈ 0.164 µM) | ≥ 64 µg/mL
4 | NC[C@@H]1O[C@H](O[C@H]2[C@@H](O)[C@H](O[C@@H]3[C@@H](O)[C@H](N)C[C@H](N)[C@H]3O[C@H]3O[C@H](CN)[C@@H](O)[C@H](O)[C@H]3N)O[C@@H]2CO)[C@H](N)[C@@H](O)[C@@H]1O [FRAMYCETIN] | 128 µg/mL (≈ 208 µM) | ≤ 1 µg/mL | 32 µg/mL (≈ 52.1 µM)
5 | NC[C@H]1O[C@H](O[C@H]2[C@H](O)[C@@H](O[C@H]3O[C@H](CO)[C@@H](O)[C@H](N)[C@H]3O)[C@H](N)C[C@@H]2N)[C@H](O)[C@@H](O)[C@@H]1O [KANAMYCIN] | ≥ 128 µg/mL | 4 µg/mL (≈ 8.26 µM) | 64 µg/mL (≈ 132 µM)
6 | Cc1onc(-c2ccccc2)c1C(=O)N[C@@H]1C(=O)N2[C@@H]1SC(C)(C)[C@@H]2C(=O)O [OXACILLIN] | 16 µg/mL (≈ 39.9 µM) | 0.12 µg/mL (≈ 0.299 µM) | 0.12 µg/mL (≈ 0.299 µM)
7 | CN(C)[C@@H]1C(O)=C(C(N)=O)C(=O)[C@@]2(O)C(O)=C3C(=O)c4c(O)cccc4[C@@](C)(O)[C@H]3C[C@@H]12 [TETRACYCLINE] | 64 µg/mL (≈ 144 µM) | 0.12 µg/mL (≈ 0.27 µM) | 32 µg/mL (≈ 72 µM)
8 | COc1cc(Cc2cnc(N)nc2N)cc(OC)c1OC [TRIMETHOPRIM] | ≥ 256 µg/mL | 0.5 µg/mL (≈ 1.72 µM) | ≥ 256 µg/mL
9 | GENTAMICIN | 8 µg/mL | 0.25 µg/mL | 8 µg/mL
